Measured values reported in the supplement of paper PMC10307832.

Legend:
Experiment in all cases: relative viability (nuclei count vs DMSO), 5 days (fraction); higher = more cells survive
[1] = compound: C1/C(=C\C2=CC=CS2)/C(=O)/C(=C/C3=CC=CS3)/C1 + CC1(C)CCC(c2ccc(Cl)cc2)=C(CN2CCN(c3ccc(C(=O)NS(=O)(=O)c4ccc(N[C@H](CCN5CCOCC5)CSc5ccccc5)c(S(=O)(=O)C(F)(F)F)c4)cc3)CC2)C1 [Navitoclax] (partner 0.5 µM)
Outline: (§1)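 Relative viability divides the nuclei count in treated wells by that in vehicle wells. Lung cancer cell lines were seeded in 1536-well plates, dosed by pin tool the next day, and fixed and stained after 5 days in one step with final 0.05% Triton X-100, 1% formaldehyde and 1 ug/ml Hoechst. Dosing was a single drug or a fixed anchor-drug dose plus five library-drug doses (not always all listed) in √10 steps, and values are medians of duplicate plates imaged at 4×.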

[2] = compound: C[C@]12O[C@H](C[C@]1(O)CO)n1c3ccccc3c3c4c(c5c6ccccc6n2c5c31)CNC4=O [Lestaurtinib] + Cc1nc(Nc2ncc(C(=O)Nc3c(C)cccc3Cl)s2)cc(N2CCN(CCO)CC2)n1 [Dasatinib] (partner 0.075 µM)
Outline: as §1

[3] = compound: C1/C(=C\C2=CC=CS2)/C(=O)/C(=C/C3=CC=CS3)/C1 + CS(=O)(=O)CCNCc1ccc(-c2ccc3ncnc(Nc4ccc(OCc5cccc(F)c5)c(Cl)c4)c3c2)o1 [Lapatinib] (partner 2 µM)
Outline: as §1

[4] = compound: C1=CC(=CC=C1C2=CC(=C(S2)NC(=O)N)C(=O)N)F [TPCA-1] + O=C(CCCCCCC(=O)Nc1ccccc1)NO [Vorinostat] (partner 1 µM)
Outline: as §1

Cell Line | relative viability ([1]; first compound 0.2 µM) | relative viability ([1]; first compound 0.6325 µM) | relative viability ([1]; first compound 2 µM) | relative viability ([1]; first compound 6.325 µM) | relative viability ([1]; first compound 20 µM) | relative viability ([2]; first compound 0.005 µM) | relative viability ([2]; first compound 0.01581 µM) | relative viability ([2]; first compound 0.05 µM) | relative viability ([2]; first compound 0.1581 µM) | relative viability ([2]; first compound 0.5 µM) | relative viability ([3]; first compound 0.2 µM) | relative viability ([3]; first compound 0.6325 µM) | relative viability ([3]; first compound 2 µM) | relative viability ([3]; first compound 6.325 µM) | relative viability ([3]; first compound 20 µM) | relative viability ([4]; first compound 0.04 µM) | relative viability ([4]; first compound 0.1265 µM) | relative viability ([4]; first compound 0.4 µM) | relative viability ([4]; first compound 1.265 µM) | relative viability ([4]; first compound 4 µM)
201T | 1.24 | 1.17 | 1.27 | 1.13 | 1.2 | 0.598 | 0.546 | 0.552 | 0.583 | 0.4 | 1.01 | 1.01 | 1.14 | 0.979 | 1.05 | 1.02 | 0.951 | 0.99 | 0.937 | 0.886
A549 | 1.32 | 1.33 | 1.24 | 1.02 | 1.19 | – | – | – | – | – | 1.04 | 0.957 | 1.05 | 0.932 | 0.902 | – | – | – | – | –
A-427 | 1.03 | 1.02 | 0.982 | 0.852 | 0.92 | 0.846 | 0.771 | 0.454 | 0.24 | 0.116 | 1.09 | 1.01 | 1.01 | 1.02 | 0.982 | 0.891 | 0.806 | 0.927 | 0.912 | 0.227
ABC-1 | – | – | – | – | – | 0.547 | 0.648 | 0.482 | 0.451 | 0.218 | 1.28 | 1.09 | 1.03 | 0.971 | 1.27 | 1.4 | 1.14 | 1.38 | 1.29 | 0.926
BEN | 0.0742 | 0.059 | 0.368 | 0.0733 | 0.0554 | 0.3 | 0.322 | 0.265 | 0.313 | 0.184 | 0.621 | 0.801 | 0.795 | 0.488 | 0.611 | 0.56 | 0.543 | 0.624 | 0.634 | 0.441
CAL-12T | 1.31 | 1.35 | 1.35 | 0.844 | 1.05 | 0.447 | 0.413 | 0.306 | 0.307 | 0.153 | 0.774 | 0.827 | 0.74 | 0.604 | 0.606 | 0.763 | 0.523 | 0.762 | 0.733 | 0.568
COR-L23 | 1.06 | 1.09 | 1.02 | 0.864 | 0.967 | 0.539 | 0.699 | 0.296 | 0.455 | 0.121 | 0.923 | 1.02 | 0.841 | 0.859 | 0.92 | 0.502 | 0.424 | 0.484 | 0.292 | 0.153
COR-L 105 | 0.623 | 0.772 | 0.79 | 0.737 | 0.701 | 0.32 | 0.32 | 0.245 | 0.258 | 0.145 | 0.355 | 0.37 | 0.38 | 0.304 | 0.361 | 1.02 | 0.709 | 0.766 | 0.628 | 0.391
Calu-6 | 0.855 | 0.848 | 0.91 | 0.811 | 0.857 | – | – | – | – | – | 1.02 | 1.03 | 0.981 | 0.991 | 0.986 | – | – | – | – | –
ChaGo-K-1 | 1.01 | 0.964 | 1.11 | 0.698 | 0.727 | 0.654 | 0.601 | 0.552 | 0.547 | 0.292 | – | – | – | – | – | 0.781 | 0.694 | 0.796 | 0.665 | 0.295
EBC-1 | 0.439 | 0.469 | 0.478 | 0.398 | 0.497 | – | – | – | – | – | 0.19 | 0.197 | 0.237 | 0.205 | 0.221 | – | – | – | – | –
EKVX | 0.999 | 0.87 | 0.916 | 0.912 | 0.919 | 0.477 | 0.735 | 0.562 | 0.576 | 0.373 | 0.184 | 0.207 | 0.264 | 0.185 | 0.199 | 0.724 | 0.622 | 0.766 | 0.76 | 0.654
EMC-BAC-2 | 1.21 | 1.11 | 1.13 | 1.05 | 1.1 | 0.291 | 0.2 | 0.255 | 0.25 | 0.19 | 0.931 | 0.873 | 0.952 | 0.866 | 0.843 | 0.461 | 0.447 | 0.615 | 0.413 | 0.203
EPLC-272H | 1.28 | 0.965 | 1.15 | 1.09 | 0.95 | 0.282 | 0.301 | 0.169 | 0.187 | 0.125 | 1.04 | 0.952 | 1.1 | 0.889 | 0.962 | 0.53 | 0.403 | 0.523 | 0.256 | 0.258
H3255 | 0.583 | 0.501 | 0.669 | 0.393 | 0.453 | 0.291 | 0.428 | 0.299 | 0.342 | 0.323 | 0.235 | 0.296 | 0.127 | 0.227 | 0.237 | 0.82 | 0.461 | 0.819 | 0.694 | 0.512
